Data as given in the supplement of paper PMC11208160.

Assay: recombinant UMI read abundance after kanamycin selection (control-corrected) (log10(CPM+1)); higher = more efficient recombination; extreme values may be limits of the assay; sequences stand for … in AGTGCAGAGAAAATCGGCCAGTTTTCTCTGCCTGCAGTCCGCATGCCGTGGGACCCCTTGGGTTCTAACCTGTTGCCTAGATTTATGCAGCGGACTGCCTTTCTCCCAAAGTGATAAACCGG…AGGTTGGTTTCACT; site = the 11-nt donor
Description: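 Pooled E. coli donor-specificity screen for the IS621 bridge recombinase. Each library member carries a reprogrammed 11-nt donor and a full-length LE bridge RNA expressed in cis from the natural promoter, with a paired donor-binding loop (8-nt LDG + 4-nt RDG) and a target-binding loop fixed to T5. It is co-electroporated with a T5 target plasmid; recombinase is induced with 0.07 mM IPTG and recombinants are selected on kanamycin. UMIs are counted as CPM, averaged over two biological replicates and corrected by the unselected control. Molecule = full bridge RNA written as DNA, built from the T5 scaffold: LDG = donor specificity nt 1-8, RDG = reverse complement of nt 8-11.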
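Note: IS621 bridge recombinase in Escherichia coli cells against a fixed T5 target plasmid.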

In order of falling “recombinant UMI read abundance (log10)” value:
1. AATGTGTCATGGACCGGTTTTCCCGGTAATCCGTATTTGTC (site AATGTGTCTGA)  2.97
2. AATGTGACATGGACCGGTTTTCCCGGTAATCCGTATTTGCT (site AATGTGACTAG)  2.65
3. AATGTAACATGGACCGGTTTTCCCGGTAATCCGTATTTGCT (site TATGTAACTAG)  2.39
4. AATGTAACATGGACCGGTTTTCCCGGTAATCCGTATTTGCT (site CATGTAACTAG)  2.37
5. AATTTAACATGGACCGGTTTTCCCGGTAATCCGTATTTGCT (site AATTTAACTAG)  2.28
6. AATTGTGCATGGACCGGTTTTCCCGGTAATCCGTATTTGAC (site AATTGTGCTGT)  2.25
7. AATGTGTCATGGACCGGTTTTCCCGGTAATCCGTATTTGAA (site AATGTGTCTTT)  2.11
8. AATGTAACATGGACCGGTTTTCCCGGTAATCCGTATTTGCT (site ATTGTAACTAG)  2.07
9. AATGTGACATGGACCGGTTTTCCCGGTAATCCGTATTTGCT (site AATGTAACTAG)  2.04
10. AATGTGTCATGGACCGGTTTTCCCGGTAATCCGTATTTGAC (site TATGTGTCTGT)  1.95
11. AATTTAACATGGACCGGTTTTCCCGGTAATCCGTATTTGCT (site AATCTAACTAG)  1.95
12. AATTATGCATGGACCGGTTTTCCCGGTAATCCGTATTTGCA (site AATTATGCTTG)  1.85
13. AATGTAACATGGACCGGTTTTCCCGGTAATCCGTATTTGCT (site ACTGTAACTAG)  1.84
14. AATGTGTCATGGACCGGTTTTCCCGGTAATCCGTATTTGAC (site AATGTGTCTGT)  1.77
15. AATTTAACATGGACCGGTTTTCCCGGTAATCCGTATTTGCT (site AATATAACTAG)  1.68
16. AATTGGACATGGACCGGTTTTCCCGGTAATCCGTATTTGAC (site TATTGGACTGT)  1.67
17. AATGTAACATGGACCGGTTTTCCCGGTAATCCGTATTTGCT (site GATGTAACTAG)  1.57
18. AATGTAACATGGACCGGTTTTCCCGGTAATCCGTATTTGCT (site AGTGTAACTAG)  1.51
19. AATGTGTCATGGACCGGTTTTCCCGGTAATCCGTATTTGTC (site AATGTGTCTGG)  1.29
20. AATTGGACATGGACCGGTTTTCCCGGTAATCCGTATTTGAC (site AATTGGACTGT)  1.21
21. AATGTGTCATGGACCGGTTTTCCCGGTAATCCGTATTTGAC (site AATGTATCTGT)  1.2
22. AATGTAACATGGACCGGTTTTCCCGGTAATCCGTATTTGCT (site AATGTTACTAG)  1.14
23. AATGTGTCATGGACCGGTTTTCCCGGTAATCCGTATTTGAC (site AAGGTGTCTGT)  1.02
24. AATGTGTCATGGACCGGTTTTCCCGGTAATCCGTATTTGAC (site CATGTGTCTGT)  0.999
25. AATGTGTCATGGACCGGTTTTCCCGGTAATCCGTATTTGTC (site AATGTGTCTGC)  0.999
26. AATTGGACATGGACCGGTTTTCCCGGTAATCCGTATTTGAC (site CATTGGACTGT)  0.955
27. AATTTAACATGGACCGGTTTTCCCGGTAATCCGTATTTGCT (site AATGTAACTAG)  0.828
28. AATTACGCATGGACCGGTTTTCCCGGTAATCCGTATTTGGA (site AATTACGCTTC)  0.807
29. AATGTGACATGGACCGGTTTTCCCGGTAATCCGTATTTGCT (site AATGTTACTAG)  0.751
30. AATTGTGCATGGACCGGTTTTCCCGGTAATCCGTATTTGCC (site AATTGTGCTGG)  0.735
31. AATGTGACATGGACCGGTTTTCCCGGTAATCCGTATTTGCT (site AATGTCACTAG)  0.731
32. AATGTGTCATGGACCGGTTTTCCCGGTAATCCGTATTTGAC (site ATTGTGTCTGT)  0.71
33. AATTGTACATGGACCGGTTTTCCCGGTAATCCGTATTTGTC (site AATTGTACTGA)  0.692
34. AATGTAACATGGACCGGTTTTCCCGGTAATCCGTATTTGCT (site AATTTAACTAG)  0.682
35. AATTTATCATGGACCGGTTTTCCCGGTAATCCGTATTTGTT (site AATTTATCTAA)  0.558
36. AATGTGTCATGGACCGGTTTTCCCGGTAATCCGTATTTGAC (site AATATGTCTGT)  0.433
37. AATTACGCATGGACCGGTTTTCCCGGTAATCCGTATTTGGA (site AATTAAGCTTC)  0.428
38. AATTCTGCATGGACCGGTTTTCCCGGTAATCCGTATTTGGA (site AATTATGCTTC)  0.384
39. AATGTGTCATGGACCGGTTTTCCCGGTAATCCGTATTTGTC (site AATGTGTCTGT)  0.364
40. AATTCTGCATGGACCGGTTTTCCCGGTAATCCGTATTTGGA (site AATTCTGCTTC)  0.349
41. AATTACGCATGGACCGGTTTTCCCGGTAATCCGTATTTGGA (site AATTATGCTTC)  0.344
42. AATGTGTCATGGACCGGTTTTCCCGGTAATCCGTATTTGAA (site AATGTGTCTAT)  0.324
43. AATTGGACATGGACCGGTTTTCCCGGTAATCCGTATTTGAC (site GATTGGACTGT)  0.231
44. AATGTGTCATGGACCGGTTTTCCCGGTAATCCGTATTTGAA (site AATGTGTCTCT)  0.204
45. AATGTGTCATGGACCGGTTTTCCCGGTAATCCGTATTTGAC (site AATGTGTCTTT)  0.181
46. AATTACGCATGGACCGGTTTTCCCGGTAATCCGTATTTGGA (site AATTAGGCTTC)  0.158
47. AATTCTGCATGGACCGGTTTTCCCGGTAATCCGTATTTGGA (site AATTGTGCTTC)  0.0372
48. AATGTGTCATGGACCGGTTTTCCCGGTAATCCGTATTTGAC (site AATGTGTCTCT)  0.028
49. AATTATGCATGGACCGGTTTTCCCGGTAATCCGTATTTGCA (site AATTATGCTTA)  0.00932
50. AATTATGCATGGACCGGTTTTCCCGGTAATCCGTATTTGCA (site AATTATGCTTT)  0.00931
51. AATGTGTCATGGACCGGTTTTCCCGGTAATCCGTATTTGAC (site AATGTGTCTAT)  0.00893
52. AATTATGCATGGACCGGTTTTCCCGGTAATCCGTATTTGCA (site AATTATGCTTC)  0.00784
53. AATTCTGCATGGACCGGTTTTCCCGGTAATCCGTATTTGGA (site AATTTTGCTTC)  0.00758
54. AATGTGTCATGGACCGGTTTTCCCGGTAATCCGTATTTGAC (site AATGTGACTGT)  0.00331
55. AATGTGTCATGGACCGGTTTTCCCGGTAATCCGTATTTGAA (site AATGTGTCTGT)  0
56. AATGTGTCATGGACCGGTTTTCCCGGTAATCCGTATTTGAC (site AAAGTGTCTGT)  0
57. AATGTGTCATGGACCGGTTTTCCCGGTAATCCGTATTTGAC (site AACGTGTCTGT)  0
58. AATGTGTCATGGACCGGTTTTCCCGGTAATCCGTATTTGAC (site AATCTGTCTGT)  0
59. AATGTGTCATGGACCGGTTTTCCCGGTAATCCGTATTTGAC (site AATGAGTCTGT)  0
60. AATGTGTCATGGACCGGTTTTCCCGGTAATCCGTATTTGAC (site AATGCGTCTGT)  0
61. AATGTGTCATGGACCGGTTTTCCCGGTAATCCGTATTTGAC (site AATGGGTCTGT)  0
62. AATGTGTCATGGACCGGTTTTCCCGGTAATCCGTATTTGAC (site AATGTCTCTGT)  0
63. AATGTGTCATGGACCGGTTTTCCCGGTAATCCGTATTTGAC (site AATGTGCCTGT)  0
64. AATGTGTCATGGACCGGTTTTCCCGGTAATCCGTATTTGAC (site AATGTGGCTGT)  0
65. AATGTGTCATGGACCGGTTTTCCCGGTAATCCGTATTTGAC (site AATGTGTCTGA)  0
66. AATGTGTCATGGACCGGTTTTCCCGGTAATCCGTATTTGAC (site AATGTGTCTGC)  0
67. AATGTGTCATGGACCGGTTTTCCCGGTAATCCGTATTTGAC (site AATGTGTCTGG)  0
68. AATGTGTCATGGACCGGTTTTCCCGGTAATCCGTATTTGAC (site AATGTTTCTGT)  0
69. AATGTGTCATGGACCGGTTTTCCCGGTAATCCGTATTTGAC (site AATTTGTCTGT)  0
70. AATGTGTCATGGACCGGTTTTCCCGGTAATCCGTATTTGAC (site ACTGTGTCTGT)  0
71. AATGTGTCATGGACCGGTTTTCCCGGTAATCCGTATTTGAC (site AGTGTGTCTGT)  0
72. AATGTGTCATGGACCGGTTTTCCCGGTAATCCGTATTTGAC (site GATGTGTCTGT)  0
